Values after ≈ are worked out from the molar mass of the structure shown. Structures can show the parent of a compound that is named as a salt. Where two headings read alike, the source gives them in different places.
Key:
[1] = Histological examination of bronchi after SO2 inhalation; type: in vivo, Sprague Dawley male rats
D. pneumoniae SS 23 [2] = assay: Experimental infection induced by D. pneumoniae SS 23; type: in vivo, Swiss white mice
Procedure: (§1) Swiss white mice of 20 g body weight were used, infected by parenteral administration of lethal amounts of pathogenic […] of Staph. aureus SS 07 and D. pneumoniae SS 23.
(§2) The antibiotics were administered at the time of injecting the infecting germ and 6 and 24 hours later. On the basis of the survival after 7 days, the ED50 values were determined, as reported in the following table II and III, wherein the reliability limits are indicated in brackets.

Staph. aureus SS 07 [3] = assay: Experimental infection induced by Staph. aureus SS 07; type: in vivo, Swiss white mice; conditions: Staphylococcus aureus, SS07, in Mus musculus, sc, 168 h, read-out: ED50 (reliability limits)
Procedure: as §1, §2

[4] = Mucolytic activity: obstruction of the bronchial tract after SO2 inhalation; type: in vivo, Sprague Dawley male rats; conditions: SO2, 15 days
B. cereus ATCC 11778 = type: cell-based; conditions: Brain Heart Infusion, estolate and RV11-RV15 previously hydrolized, unit assumed
S. heidelberg SS 18 = type: cell-based; conditions: Brain Heart Infusion, estolate and RV11-RV15 previously hydrolized, unit assumed
D. pneumoniae SS 23 [5] = type: cell-based; conditions: Brain Heart Infusion, estolate and RV11-RV15 previously hydrolized, unit assumed
Staph. aureus SS 08 = type: cell-based; conditions: Brain Heart Infusion, estolate and RV11-RV15 previously hydrolized, unit assumed
B. subtilis ATCC 6633 = type: cell-based; conditions: Brain Heart Infusion, estolate and RV11-RV15 previously hydrolized, unit assumed
Br. melitensis SS 19 = type: cell-based; conditions: unit assumed
E. coli SS 05 = type: cell-based; conditions: Brain Heart Infusion, estolate and RV11-RV15 previously hydrolized, unit assumed
Pr. mirabilis SS 09 = type: cell-based; conditions: Brain Heart Infusion, estolate and RV11-RV15 previously hydrolized, unit assumed
E. coli SS 07 = type: cell-based; conditions: Brain Heart Infusion, estolate and RV11-RV15 previously hydrolized, unit assumed
B. anthranis SS 09 = type: cell-based; conditions: B. anthranis SS 09 (14 bis); Brain Heart Infusion; estolate and RV11-RV15 previously hydrolized; unit assumed
H. influentiae SS 02 = type: cell-based; conditions: Brain Heart Infusion, estolate and RV11-RV15 previously hydrolized, unit assumed
Br. abortus SS 7 = type: cell-based; conditions: Brain Heart Infusion, estolate and RV11-RV15 previously hydrolized, unit assumed
Strept. faecalis SS 19 = type: cell-based; conditions: Brain Heart Infusion, estolate and RV11-RV15 previously hydrolized, unit assumed
[6] = Hematic levels in the healthy volunteer; type: in vivo, healthy volunteers; conditions: oral, 500 mg of erythromycin, average
From the text: For the dosing, the microbiological method using a B. subtilis strain was adopted.

Citrobacter SS 09 = type: cell-based; conditions: Brain Heart Infusion, estolate and RV11-RV15 previously hydrolized, unit assumed
C. diphtheriae SS 19 = type: cell-based; conditions: Brain Heart Infusion, estolate and RV11-RV15 previously hydrolized, unit assumed
E. aerogenes SS 011 = type: cell-based; conditions: Brain Heart Infusion, estolate and RV11-RV15 previously hydrolized, unit assumed
Citrobacter SS 05 = type: cell-based; conditions: Brain Heart Infusion, estolate and RV11-RV15 previously hydrolized, unit assumed
Staph. albus SS 03 = type: cell-based; conditions: Brain Heart Infusion, estolate and RV11-RV15 previously hydrolized, unit assumed
Staph. albus SS 04 = type: cell-based; conditions: Brain Heart Infusion, estolate and RV11-RV15 previously hydrolized, unit assumed
E. coli SS 04 = type: cell-based; conditions: Brain Heart Infusion, estolate and RV11-RV15 previously hydrolized, unit assumed
Cl. tetani SS 17 = type: cell-based; conditions: Brain Heart Infusion, estolate and RV11-RV15 previously hydrolized, unit assumed
B. subtilis SS 127 = type: cell-based; conditions: Brain Heart Infusion, estolate and RV11-RV15 previously hydrolized, unit assumed
B. anthranis SS 08 = type: cell-based; conditions: Brain Heart Infusion, estolate and RV11-RV15 previously hydrolized, unit assumed
Staph. aureus SS 07 [7] = type: cell-based; conditions: Brain Heart Infusion, estolate and RV11-RV15 previously hydrolized, unit assumed
N. gonorreae SS 27 = type: cell-based; conditions: Brain Heart Infusion, estolate and RV11-RV15 previously hydrolized, unit assumed
N. meningitidis SS 04 = type: cell-based; conditions: Brain Heart Infusion, estolate and RV11-RV15 previously hydrolized, unit assumed
C. albicans SS 04 = type: cell-based; conditions: Brain Heart Infusion, estolate and RV11-RV15 previously hydrolized, unit assumed
E. coli SS 06 = type: cell-based; conditions: Brain Heart Infusion, estolate and RV11-RV15 previously hydrolized, unit assumed
[8] = system: Strept. haemolyticus SS 17; type: cell-based; conditions: Brain Heart Infusion, estolate and RV11-RV15 previously hydrolized, unit assumed
H. tubercolosis SS 03 = type: cell-based; conditions: Brain Heart Infusion, estolate and RV11-RV15 previously hydrolized, unit assumed
From the text: (§3) In the following table I the MIC/ml values are indicated corresponding to the lowest concentration capable of inducing a complete inhibition of the bacterial development.

Kl. pneumoniae SS 04 = type: cell-based; conditions: Brain Heart Infusion, estolate and RV11-RV15 previously hydrolized, unit assumed
From the text: as §3

E. cloacae SS 07 = type: cell-based; conditions: Brain Heart Infusion, estolate and RV11-RV15 previously hydrolized, unit assumed
Acute toxicity = type: in vivo; conditions: mouse, in vivo
Procedure: The acute toxicity was assessed in Swiss white mice by oral and intravenous route. The LD50 values have been calculated by the methods of Probits, starting from the mortality recorded 10 days after the treatment.

Staph. aureus SS 09 = type: cell-based; conditions: Brain Heart Infusion, estolate and RV11-RV15 previously hydrolized, unit assumed
Sr. marcescens SS 03 = type: cell-based; conditions: Brain Heart Infusion, estolate and RV11-RV15 previously hydrolized, unit assumed
S. lutea ATCC 9341 = type: cell-based; conditions: Brain Heart Infusion, estolate and RV11-RV15 previously hydrolized, unit assumed
S. infantis SS 08 = type: cell-based; conditions: Brain Heart Infusion, estolate and RV11-RV15 previously hydrolized, unit assumed
[9] = in vivo; for Hematic levels in the rat: po, 100 mg/kg
H. pertussis SS 03 = type: cell-based; conditions: Brain Heart Infusion, estolate and RV11-RV15 previously hydrolized, unit assumed
[10] = system: Strept. haemolyticus SS 18; type: cell-based; conditions: Brain Heart Infusion, estolate and RV11-RV15 previously hydrolized, unit assumed
Pr. vulgaris SS 10 = type: cell-based; conditions: Brain Heart Infusion, estolate and RV11-RV15 previously hydrolized, unit assumed
Kl. aerogenes SS 71 = type: cell-based; conditions: Brain Heart Infusion, estolate and RV11-RV15 previously hydrolized, unit assumed
Ps. aeruginosa SS 10 = type: cell-based; conditions: Brain Heart Infusion, estolate and RV11-RV15 previously hydrolized, unit assumed

SMILES: CCOC(=O)CCC(=O)O[C@H]1[C@H](O[C@@H]2[C@@H](C)[C@H](O[C@H]3C[C@@](C)(OC)[C@@H](O)[C@H](C)O3)[C@@H](C)C(=O)O[C@H](CC)[C@@](C)(O)[C@H](O)[C@@H](C)C(=O)[C@H](C)C[C@@]2(C)O)O[C@H](C)C[C@@H]1N(C)C [erythromycin ethyl succinate, reference compound]
- bronchial epithelium reaction ([1]; i.m., 250 mg/kg): the bronchial epithelium reacts through a proliferation of cells, mainly cup-shaped cells
- histological appearance of obstructed bronchial tract ([1]; i.m., 250 mg/kg): the bronchial obstruction is formed by abundant mucus admixed with fibrin
- ED50 (D. pneumoniae SS 23 [2]; Streptococcus pneumoniae, SS23, in Mus musculus, sc, 168 h, read-out: ED50 (reliability limits)): 54.2 mg/kg
- ED50 (Staph. aureus SS 07 [3]): 1.03 mg/kg
- Partial obstruction (% incidence) ([4]; i.m., 250 mg/kg): 20%
- Total obstruction, compact plug (% incidence) ([4]; i.m., 250 mg/kg): 53.33%
- Total obstruction, nodular mass (% incidence) ([4]; i.m., 250 mg/kg): 26.66%
- Total obstruction, pimply mass (% incidence) ([4]; i.m., 250 mg/kg): 13.33%

SMILES: CCC(=O)O[C@H]1[C@H](O[C@@H]2[C@@H](C)[C@H](O[C@H]3C[C@@](C)(OC)[C@@H](O)[C@H](C)O3)[C@@H](C)C(=O)O[C@H](CC)[C@@](C)(O)[C@H](O)[C@@H](C)C(=O)[C@H](C)C[C@@]2(C)O)O[C@H](C)C[C@@H]1N(C)C [RV14, erythromycin-monopropionate-S-carboxymethyl cysteinate]
- MIC (B. cereus ATCC 11778): 0.4 µg/mL (≈ 0.506 µM)
- MIC (S. heidelberg SS 18): 100 µg/mL (≈ 127 µM)
- MIC (D. pneumoniae SS 23 [5]): 0.05 µg/mL (≈ 0.0633 µM)
- MIC (Staph. aureus SS 08): 0.05 µg/mL (≈ 0.0633 µM)
- MIC (B. subtilis ATCC 6633): 0.025 µg/mL (≈ 0.0316 µM)
- histological appearance of non obstructed bronchi ([1]; oral, 500 mg/kg, free non obstructed): presence of bronchi having almost normal appearance
- histological appearance of obstructed bronchial tract ([1]; oral, 500 mg/kg): fully like that of the control animals
- MIC (Br. melitensis SS 19): 3 µg/mL (≈ 3.8 µM)
- MIC (E. coli SS 05): 50 µg/mL (≈ 63.3 µM)
- MIC (Pr. mirabilis SS 09): > 200 µg/mL
- MIC (E. coli SS 07): 50 µg/mL (≈ 63.3 µM)
- MIC (B. anthranis SS 09): 0.8 µg/mL (≈ 1.01 µM)
- MIC (H. influentiae SS 02): 1.5 µg/mL (≈ 1.9 µM)
- MIC (Br. abortus SS 7): 12 µg/mL (≈ 15.2 µM)
- MIC (Strept. faecalis SS 19): 0.05 µg/mL (≈ 0.0633 µM)
- Hematic levels in the healthy volunteer ([6]; 0.30 hours, 18 min): 1.20 µg/mL
- Hematic levels in the healthy volunteer ([6]; 1 hour, 60 min): 1.78 µg/mL
- Hematic levels in the healthy volunteer ([6]; 2 hours, 120 min): 2.28 µg/mL
- Hematic levels in the healthy volunteer ([6]; 3 hours, 180 min): 1.60 µg/mL
- Hematic levels in the healthy volunteer ([6]; 4 hours, 240 min): 1.21 µg/mL
- ED50 (reliability limits) (D. pneumoniae SS 23 [2]; os, D. pneumoniae SS 23, mg/kg of erythromycin, survival after 7 days, 10080 min): 123.74 (148.77-102.92) mg/kg
- MIC (Citrobacter SS 09): > 200 µg/mL
- MIC (C. diphtheriae SS 19): 0.01 µg/mL (≈ 0.0127 µM)
- MIC (E. aerogenes SS 011): 50 µg/mL (≈ 63.3 µM)
- MIC (Citrobacter SS 05): > 200 µg/mL
- MIC (Staph. albus SS 03): 0.1 µg/mL (≈ 0.127 µM)
- MIC (Staph. albus SS 04): 0.05 µg/mL (≈ 0.0633 µM)
- MIC (E. coli SS 04): 100 µg/mL (≈ 127 µM)
- MIC (Cl. tetani SS 17): 0.2 µg/mL (≈ 0.253 µM)
- MIC (B. subtilis SS 127): 0.05 µg/mL (≈ 0.0633 µM)
- MIC (B. anthranis SS 08): 0.4 µg/mL (≈ 0.506 µM)
- MIC (Staph. aureus SS 07 [7]): 0.025 µg/mL (≈ 0.0316 µM)
- MIC (N. gonorreae SS 27): 0.8 µg/mL (≈ 1.01 µM)
- MIC (N. meningitidis SS 04): 0.8 µg/mL (≈ 1.01 µM)
- MIC (C. albicans SS 04): 200 µg/mL (≈ 253 µM)
- MIC (E. coli SS 06): 25 µg/mL (≈ 31.6 µM)
- MIC [8]: 1.5 µg/mL (≈ 1.9 µM)
- Partial obstruction (% incidence) ([4]; oral, 500 mg/kg): 13.33%
- Total obstruction, compact plug (% incidence) ([4]; oral, 500 mg/kg): 26.66%
- Total obstruction, nodular mass (% incidence) ([4]; oral, 500 mg/kg): 6.66%
- Total obstruction, pimply mass (% incidence) ([4]; oral, 500 mg/kg): 6.66%
- MIC (H. tubercolosis SS 03): 50 µg/mL (≈ 63.3 µM)
- MIC (Kl. pneumoniae SS 04): 100 µg/mL (≈ 127 µM)
- MIC (E. cloacae SS 07): > 200 µg/mL
- LD50 (reliability limits) (Acute toxicity; po, 14400 min): 3000 mg·kg
- MIC (Staph. aureus SS 09): 0.1 µg/mL (≈ 0.127 µM)
- MIC (Sr. marcescens SS 03): 200 µg/mL (≈ 253 µM)
- MIC (S. lutea ATCC 9341): 0.01 µg/mL (≈ 0.0127 µM)
- MIC (S. infantis SS 08): 100 µg/mL (≈ 127 µM)
- Hematic levels in the rat ([9]; 0.3 h): 0.72 µg/mL
- Hematic levels in the rat ([9]; 1 h): 1.85 µg/mL
- Hematic levels in the rat ([9]; 2 h): 2.55 µg/mL
- Hematic levels in the rat ([9]; 3 h): 1.39 µg/mL
- Hematic levels in the rat ([9]; 4 h): 0.65 µg/mL
- Hematic levels in the rat ([9]; 5 h): 0.54 µg/mL
- Hematic levels in the rat ([9]; 6 h): 0.07 µg/mL
- absorption by oral route (in words) ([9]; rat): absorbed by oral route in a rate practically analogous to that of erythromycin estolate
- MIC (H. pertussis SS 03): 0.4 µg/mL (≈ 0.506 µM)
- MIC [10]: 0.8 µg/mL (≈ 1.01 µM)
- MIC (Pr. vulgaris SS 10): > 200 µg/mL
- MIC (Kl. aerogenes SS 71): 100 µg/mL (≈ 127 µM)
- MIC (Ps. aeruginosa SS 10): 100 µg/mL (≈ 127 µM)

SMILES: CC[C@H]1OC(=O)[C@H](C)[C@@H](O[C@H]2C[C@@](C)(OC)[C@@H](O)[C@H](C)O2)[C@H](C)[C@@H](O[C@@H]2O[C@H](C)C[C@H](N(C)C)[C@H]2O)[C@](C)(O)C[C@@H](C)C(=O)[C@H](C)[C@@H](O)[C@]1(C)O [erythromycin hydrochloride, reference compound]
- LD50 at 240 h (Acute toxicity; iv, mortality 10 days after treatment, mice, read-out: LD50 (reliability limits)): 377 mg/kg
